The record followed here is article PMC10380766, “Development of Hydrophobic Cell-Penetrating Stapled Peptides as Drug Carriers” (International Journal of Molecular Sciences, 2023).

Data set [1] is described as follows: DLS measurement of peptide/pDNA complexes (size, PDI). The class given is physicochemical. The conditions noted are these: peptide/pDNA complex, mean ± SD of 3 measurements; for Size: cumulant method. On the procedure: (§1) The ability of peptides F-1–F-4 to deliver pDNA was evaluated using complexes between the peptides and pDNA in 10 mM Hepes buffer (pH 7.3). The zeta potentials and sizes of the peptide/pDNA complexes prepared at various charge ratios were determined (Table 2). The size of the F-1 peptide/pDNA complexes at a charge ratio of 2 was 3364 nm, and the sizes decreased with an increase in the charge ratios (Table 2). The sizes of the peptide/pDNA complexes were in the order of several hundred nm, which is considered to be a useful size for the delivery of pDNA, except for the complex with F-1 at N/P = 2, which was defined as the residual molar ratio of the amino groups in polycations of peptides (N) to the phosphate groups in pDNA (P). […] Thus, we examined the complexes of F-1–F-4 at N/P = 8 to evaluate the effect of the stapling of TP10 on the ability to deliver pDNA.
(§2) Each 1 mM peptide solution in DMSO and pDNA was dissolved separately in 10 mM Hepes buffer (pH 7.3). To form peptide/pDNA complexes, peptide solutions of various concentrations were added to the pDNA solution in 2-fold excess. The final pDNA concentration was adjusted to […]. After the complex solutions were stored at room temperature for 15 min, the complex solutions were added. The charge ratio was defined as the residual molar ratio of the amino group of amino acid in the peptide to the phosphate group in the pDNA.
(§3) The zeta-potentials of the peptide/pDNA complexes in 10 mM Hepes buffer (pH 7.3) were evaluated by the laser-Doppler electrophoresis method using Nano ZS (ZEN3600, Malvern Instruments, Ltd., Malvern, UK) with a He–Ne ion laser (633 nm). Light scattering data were obtained at a detection angle of 173° and temperature of 25 °C, and were subsequently analyzed by the cumulant method to obtain the hydrodynamic diameters, polydispersity indices (PDI) (m/G^2) and zeta-potential of the complexes. Results were presented as the mean and standard deviation of 3 measurements (Table 2).

Data set [2] is described as follows: Zeta-potential measurement of peptide/pDNA complexes. The class given is physicochemical. The conditions noted are these: peptide/pDNA complex, laser-Doppler electrophoresis, 10 mM Hepes pH 7.3, 25 °C, mean ± SD of 3 measurements. As for the experimental part:
as §1, §2, §3

For data set [3], the system named is HEK293 cells. The data set is described as follows: Cellular uptake of peptide/Cy5-pDNA complexes by flow cytometry. In kind it is cell-based. Conditions: peptide/Cy5-pDNA complex at N/P = 8, HEK293 cells, flow cytometry 488 nm excitation, n = 4 (Figure S1). On the procedure: (§4) The intracellular uptake of Cy5-labeled pDNA complexed with peptides F-1–F-4 was evaluated in […] cells. The fluorescence intensity of Cy5 incorporated into […] was quantified using flow cytometry at 24 h after administration (Figure 5). […] The stability of the peptide/pDNA complex was then evaluated by adding the negatively charged competitive inhibitor, dextran sulfate.
Figure 5 Cellular uptake of peptide/Cy5-pDNA complexes at N/P = 8 in HEK293 cells. The cellular uptake ability was determined by flow cytometry. The cells were excited with a 635 nm light for detecting Cy5-pDNA. Error bars represent the mean ± standard deviation, n = 4.
Each 1 mM peptide solution in DMSO and pDNA was dissolved separately in 10 mM Hepes buffer (pH 7.3). To form peptide/pDNA complexes, peptide solutions of various concentrations were added to the pDNA solution in 2-fold excess. The final pDNA concentration was adjusted to 33.3 mg/mL. After the complex solutions were stored at room temperature for 15 min, the complex solutions were added. […]
HEK293 cells were seeded on 24-well culture plates (100,000 cells/well) and incubated overnight in 500 μL of DMEM. […] The cell pellets obtained were suspended in PBS and the cells were analyzed by a BD accuri C6 Plus flow cytometer (BD Bioscience, New Jersey).
Figure S1. […] Cellular uptake ability was determined by flow cytometry. […]
In general terms: Flow cytometry measures light scatter and fluorescence of single cells or particles in a stream.

Data set [4] is described as follows: CD spectroscopy, secondary structure (R value). The class given is physicochemical. The conditions noted are these: 10% acetonitrile in 20 mM phosphate buffer pH 7.4, peptide 50 µM, ratio of CD signal intensities at 222 and 208 nm. As for the experimental part: CD measurements were performed to analyze the preferred secondary structures of the synthesized peptides F-1–F-4 (10% acetonitrile in 20 mM phosphate buffer, pH 7.4) (Figure 2). […] These characteristic Cotton effects indicated the presence of a helical structure in F-1. […] To further evaluate the dominant secondary structures of the peptides, a parameter called the R value (θ222/θ208) was calculated. The R value represents the ratio of the CD signal intensities at 222 nm and 208 nm, respectively. For the peptides F-1, F-2, F-3, and F-4, the R values were determined to be 0.72, 1.83, 0.95, and 1.58, respectively. Based on previous studies, these R values indicate that the dominant secondary structures of all the peptides were α-helices.
CD spectra were recorded with a JASCO J-1100 CD spectrometer using a 1.0 mm path length cell. The data are expressed in terms of [θ]; i.e., total molar ellipticity (deg cm^2 dmol^−1). Peptides were dissolved in 10% MeCN in 20 mM phosphate buffer solution at 50 µM concentrations. Each parameter was: wavelength: 190–260 nm; bandwidth: 1 nm; response: 1 s; speed: 50 nm min^−1; accumulations: 3 times; and path length: […].

Data set [5] concerns HEK293 cells. As to the kind of experiment: Cellular-uptake mechanism: endocytosis inhibitors and 4 °C. In kind it is cell-based. Conditions: peptide 5 µM, flow cytometry. From the text: To inhibit specific endocytic pathways, three different inhibitors were used: amiloride, nystatin, and sucrose. Each inhibitor targets a distinct endocytic pathway: amiloride inhibits […] (a form of endocytosis where cells engulf fluid and solutes); nystatin inhibits caveolae-mediated endocytosis (a process involving small invaginations in the cell membrane called caveolae); and sucrose inhibits clathrin-mediated endocytosis (a mechanism in which the protein clathrin forms coated pits on the cell surface to internalize molecules). As a control, a peptide called nona-arginine (R9) with CF […] was used. This peptide is known to enter cells via endocytosis. The uptake of CF-R9 with that of the parent peptide F-1 and the stapled peptide F-3 was compared.
HEK293 cells were seeded in 24-well plates at a density of 200,000 cells/well and cultured in DMEM for 23 h. After the medium had been replaced with fresh medium containing 10% FBS in the absence or presence of amiloride (5 mM), sucrose (0.4 M), or nystatin (25 μg/mL), the cells were pre-incubated at 37 °C for 30 min. Then, the cells were treated with the relevant peptide (peptide concentration; 5 µM) and incubated for 30 min at 37 °C. […] Then, the cells were analyzed by a BD accuri C6 Plus flow cytometer (BD Bioscience, New Jersey). […]

Another data set concerns pDNA. The data set is described as follows: Displacement assay with dextran sulfate (gel retardation). The class given is physicochemical. Conditions: N/P = 8, 100 ng pDNA, 30 min at 37 °C, agarose gel. On the procedure: as §4
Complex with 100 ng of pDNA and peptide at N/P ratio = 8 were incubated for 30 min at 37 °C in the presence of dextran sulfate (sodium salt, Wako, Japan) at various concentrations ranging 0, 0.05, 0.1, 0.5, and 1 mg/mL. After the incubation, the samples were analyzed on agarose gel and the gel was stained with SYBR Gold (Thermo Fisher Scientific, Waltham, MA, USA).
Figure S1. Cellular uptake of peptide/Cy5-pDNA complexes at N/P = 8 with HEK293 cells. Cellular uptake ability was determined by flow cytometry. The cells were excited with a 488 nm light from an LD laser for detecting FAM-p eptide. Error bars represent the mean±standard deviation, n = 4.
Dextran sulfate Dextran sulfate Dextran sulfate Dextran sulfate […]
Figure S2. Physicochemical characterization of peptide/pDNA complexes at N/P = 8 with dextran sulfate. Gel retardation assay for evaluation of the stability and the dissociation of the peptide/pDNA complexes upon treatment with dextran sulfate at different concentrations ranging from 0 to 1 mg/mL. […]

[6] abbreviates: N/P ratio 2, 10 mM Hepes pH 7.3, 25 °C.
[7] abbreviates: N/P ratio 4, 10 mM Hepes pH 7.3, 25 °C.
Setting [8] is: N/P ratio 8, 10 mM Hepes pH 7.3, 25 °C.

“CF-XAGYLLGKINLKALAAS5*AKKS5*L (sidechain bridge or staple) [F-3, C-terminal stapled TP10 analog, Leu and Ile replaced with S5 residues, CF-labelled]”: the Size is on record as 391 ± 8 nm in data set [1] (setting [6]), 352 ± 57 nm in data set [1] (setting [7]) and 324 ± 53 nm in data set [1] (setting [8]). In addition, the PDI is on record as 0.417 ± 0.049 in data set [1] (setting [6]), 0.366 ± 0.054 in data set [1] (setting [7]) and 0.399 ± 0.083 in data set [1] (setting [8]). Also, the Zeta-Potential is given as 22.9 ± 1.1 mV in data set [2] (N/P ratio 2), 18.0 ± 1.7 mV in data set [2] (N/P ratio 4) and 20.6 ± 3.0 mV in data set [2] (N/P ratio 8). Moreover, in the data set with HEK293 cells [3], the “fluorescence from peptide detected by CF after adding peptide/Cy5-pDNA complex” value is listed as “strongest fluorescence”. Besides, in data set [4], the “R value (θ222/θ208)” value was 0.95. In addition, the “cellular uptake when incubated at 4 °C” value with HEK293 cells [5] (30 min at 4 °C compared with 37 °C) is on record as “significantly inhibited”. In addition, the “cellular uptake when treated with endocytosis inhibitors” value in the data set with HEK293 cells [5] (30 min at 37 °C after 30 min pre-incubation with amiloride (5 mM), sucrose (0.4 M) or nystatin (25 μg/mL), n=3) is “significantly inhibited”. Besides, the “concentration of dextran sulfate at which the peptide/pDNA complex dissociated” value in the data set with pDNA (dextran sulfate 0, 0.05, 0.1, 0.5, 1 mg/mL, SYBR Gold (Figure S2)) is reported as 0.5 mg/mL. In addition, the “stability of the peptide/pDNA complex against dextran sulfate” value with pDNA (dextran sulfate 0-1 mg/mL) is “less stable than the other complexes”.
